{"source": "patent US9140689B2", "about": "“Methods of determining susceptibility of tumors to tyrosine kinase inhibitors” (Translational Genomics Research Institute, priority 2010, dated 2015)", "type_in_all_cases": "cell-based, murine", "key": {"[1]": {"test_system": "BaF3/FGFR2b wildtype cells", "test": "BaF3/FGFR2b cell viability (ViaLight assay), wildtype", "details": "Mus musculus, BaF3, 72 h, read-out: IC50 value in BaF3/FGFR2b wildtype", "description": "(§1) The BaF3 cell line is an IL-3 dependent murine pro-B cell line that is commonly employed to model TKI resistant mutations. BaF3 cells are made dependent on a specific oncogenic tyrosine kinase, and are cultured in the presence of a kinase inhibitor against that specific kinase, and resistant colonies can be screened for drug resistant mutations. This approach effectively reproduced the pattern and relative abundance of Bcr-Abl mutations seen clinically in imatinib-resistant patients (Von Bubnoff, N. et al, Blood. 2005 105:1652-1659)\n(§2) BaF3/FGFR2b wildtype and N550K mutation variant cells were plated at a density of 10,000 cells/well in a 96-well plate. […] (Selleck Chemicals) or PD173074 (Calbiochem) was added in half-log dilutions in the absence of IL3 and in the presence of 1 nM FGF10 and 5 μg/mL heparin. After 72 hours, cell viability was measured using the ViaLight assay from Lonza (Visp, CH). The IC50 values shown in FIG. 1 were normalized to DMSO control and data were analyzed with Prism software. […]."}, "[2]": {"test_system": "BaF3/FGFR2b N550K mutation variant cells", "test": "BaF3/FGFR2b cell viability (ViaLight assay), N550K variant", "description": "as §1, §2"}, "[3]": {"test_system": "BaF3/FGFR2b E719G mutation variant cells", "test": "BaF3/FGFR2b TKI resistance test, E719G variant alone", "excerpt": "Genomic DNA was isolated from the BaF3.FGFR2b colonies selected in the […]-resistance screen. Exons encoding the intracellular domain of FGFR2b were amplified and sequencing performed in two directions. Mutations in the intracellular domain of FGFR2b were identified in 26 of the 63 (41%) […] resistant BaF3.FGFR2b clones. Among the 26 FGFR2b mutations, eleven different mutation variants were detected (Table 1). The eleven different mutation variants are: M536I, M538I, I548V, N550H, N550K, N550S, V565I, E566G, L618M, E719G, and Y770IfsX14. The most commonly mutated codon was N550, with mutations occurring in 19 of the 26 (73%) resistant clones. In addition, E719G mutation variant was identified in a clone with a N550H mutation; […]. Similar tests were performed with the other 10 FGFR2b mutation variants. The majority of the mutations identified in this drug resistance screen result in activation of FGFR2. […]. The FGFR2 mutations resistance to another TKI PD173074 were also tested. […] The receptor activation of FGFR2 mutants and wildtype were measured and compared in the presence of FGF ligand. […]"}}, "data": [{"smiles": "CCN(CC)CCCCNc1ncc2cc(-c3cc(OC)cc(OC)c3)c(NC(=O)NC(C)(C)C)nc2n1", "note": "[PD173074]", "values": [{"measurement": "IC50", "setting": "[1]", "result": 4.5, "unit": "nM"}, {"measurement": "fold difference of IC50, N550K versus wildtype", "setting": "[2]; BaF3/FGFR2b N550K vs wildtype", "result": "over 170 fold"}, {"measurement": "IC50", "setting": "[2]; Mus musculus, BaF3, 72 h, read-out: IC50 value in N550K resistance cells", "result": 776, "unit": "nM"}, {"measurement": "resistance conferred by E719G mutation alone", "setting": "[3]", "result": "did not induce resistance"}]}]}
